ChEMBL document CHEMBL5653631, “A Potent and Selective ULK1 Inhibitor Suppresses Autophagy and Sensitizes Cancer Cells to Nutrient Stress” (iScience, 2018)

Key:
[1] = biological target: T1, Serine/threonine-protein kinase Nek9 (Homo sapiens) (UniProt Q8TD19); assay: Inhibition of human recombinant NEK9 at 500 nM related to control ULK1
T1 sequence (whole entry): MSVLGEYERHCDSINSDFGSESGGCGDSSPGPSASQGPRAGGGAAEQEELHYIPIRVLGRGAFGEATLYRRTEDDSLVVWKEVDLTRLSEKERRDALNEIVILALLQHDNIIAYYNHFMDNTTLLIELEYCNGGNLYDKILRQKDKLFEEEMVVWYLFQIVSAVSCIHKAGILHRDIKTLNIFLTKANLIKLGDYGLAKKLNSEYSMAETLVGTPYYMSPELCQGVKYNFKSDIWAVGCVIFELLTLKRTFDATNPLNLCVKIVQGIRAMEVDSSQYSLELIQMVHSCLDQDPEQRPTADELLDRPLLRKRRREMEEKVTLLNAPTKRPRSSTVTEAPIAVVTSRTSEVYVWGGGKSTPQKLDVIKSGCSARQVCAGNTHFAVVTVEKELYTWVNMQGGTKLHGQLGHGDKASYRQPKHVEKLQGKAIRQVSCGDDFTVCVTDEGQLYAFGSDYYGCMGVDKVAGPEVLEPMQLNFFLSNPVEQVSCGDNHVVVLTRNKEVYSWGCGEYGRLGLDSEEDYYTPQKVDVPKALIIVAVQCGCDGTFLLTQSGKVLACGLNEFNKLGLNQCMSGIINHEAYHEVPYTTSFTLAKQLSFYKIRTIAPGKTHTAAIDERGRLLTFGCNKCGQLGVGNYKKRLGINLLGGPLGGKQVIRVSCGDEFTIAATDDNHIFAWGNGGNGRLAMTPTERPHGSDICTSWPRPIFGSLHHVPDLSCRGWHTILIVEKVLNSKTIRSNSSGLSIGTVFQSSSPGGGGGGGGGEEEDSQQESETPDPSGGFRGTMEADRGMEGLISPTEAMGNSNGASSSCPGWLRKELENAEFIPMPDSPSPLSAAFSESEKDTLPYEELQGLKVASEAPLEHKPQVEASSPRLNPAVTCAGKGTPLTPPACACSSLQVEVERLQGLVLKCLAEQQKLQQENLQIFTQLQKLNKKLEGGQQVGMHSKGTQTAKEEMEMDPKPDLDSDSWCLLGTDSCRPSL

[2] = biological target: Rhodopsin kinase GRK7 (Homo sapiens) (UniProt Q8WTQ7); assay: Inhibition of human recombinant GPRK7 at 500 nM in presence of ATP by radiometric assay relative to control
Rhodopsin kinase GRK7 (Homo sapiens), sequence (Q8WTQ7 whole entry, looked up): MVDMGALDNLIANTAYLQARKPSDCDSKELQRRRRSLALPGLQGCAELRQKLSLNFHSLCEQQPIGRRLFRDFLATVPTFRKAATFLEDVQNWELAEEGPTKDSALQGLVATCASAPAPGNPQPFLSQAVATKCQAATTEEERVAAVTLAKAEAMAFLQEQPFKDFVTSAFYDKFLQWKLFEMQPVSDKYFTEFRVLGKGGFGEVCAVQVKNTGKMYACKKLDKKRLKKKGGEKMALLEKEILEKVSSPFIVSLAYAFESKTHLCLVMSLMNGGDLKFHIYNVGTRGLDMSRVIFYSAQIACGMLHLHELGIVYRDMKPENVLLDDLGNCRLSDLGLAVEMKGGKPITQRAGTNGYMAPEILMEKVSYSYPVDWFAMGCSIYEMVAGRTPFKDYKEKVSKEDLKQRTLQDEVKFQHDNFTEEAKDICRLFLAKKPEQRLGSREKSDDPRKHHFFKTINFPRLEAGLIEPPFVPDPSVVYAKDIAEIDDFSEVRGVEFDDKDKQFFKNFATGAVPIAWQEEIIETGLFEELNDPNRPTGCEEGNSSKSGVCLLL

[3] = biological target: T2, Ephrin type-B receptor 1 (Homo sapiens) (UniProt P54762); assay: Inhibition of human recombinant EphB1 at 500 nM related to control ULK1
T2 sequence (whole entry): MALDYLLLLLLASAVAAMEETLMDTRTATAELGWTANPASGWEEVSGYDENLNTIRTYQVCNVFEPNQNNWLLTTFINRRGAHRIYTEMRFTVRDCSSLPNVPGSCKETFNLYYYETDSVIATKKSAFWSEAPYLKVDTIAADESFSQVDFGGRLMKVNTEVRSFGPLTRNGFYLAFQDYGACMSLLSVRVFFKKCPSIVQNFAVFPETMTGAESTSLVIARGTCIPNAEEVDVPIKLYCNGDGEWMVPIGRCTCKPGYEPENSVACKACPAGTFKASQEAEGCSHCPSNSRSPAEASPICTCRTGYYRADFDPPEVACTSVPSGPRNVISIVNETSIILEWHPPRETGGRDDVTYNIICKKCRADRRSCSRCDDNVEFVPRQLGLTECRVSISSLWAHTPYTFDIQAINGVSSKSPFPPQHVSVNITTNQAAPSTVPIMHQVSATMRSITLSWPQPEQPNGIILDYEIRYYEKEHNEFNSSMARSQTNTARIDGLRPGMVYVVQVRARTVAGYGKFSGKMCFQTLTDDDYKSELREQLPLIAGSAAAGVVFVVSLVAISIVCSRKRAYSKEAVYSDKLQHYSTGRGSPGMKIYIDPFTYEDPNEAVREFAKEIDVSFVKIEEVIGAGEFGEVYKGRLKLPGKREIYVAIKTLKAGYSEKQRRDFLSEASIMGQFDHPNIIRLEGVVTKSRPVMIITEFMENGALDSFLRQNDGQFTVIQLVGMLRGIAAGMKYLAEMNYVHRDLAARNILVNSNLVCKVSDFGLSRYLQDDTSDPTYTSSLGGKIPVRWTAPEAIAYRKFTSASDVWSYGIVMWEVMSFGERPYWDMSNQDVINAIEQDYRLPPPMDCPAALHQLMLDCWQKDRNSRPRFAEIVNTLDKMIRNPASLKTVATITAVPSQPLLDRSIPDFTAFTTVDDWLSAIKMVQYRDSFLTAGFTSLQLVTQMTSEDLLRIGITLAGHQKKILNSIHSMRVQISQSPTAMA

[4] = biological target: Receptor tyrosine-protein kinase erbB-4 (Homo sapiens) (UniProt Q15303); assay: Inhibition of human recombinant ErbB4 at 500 nM related to control ULK1
Receptor tyrosine-protein kinase erbB-4 (Homo sapiens), sequence (Q15303 whole entry): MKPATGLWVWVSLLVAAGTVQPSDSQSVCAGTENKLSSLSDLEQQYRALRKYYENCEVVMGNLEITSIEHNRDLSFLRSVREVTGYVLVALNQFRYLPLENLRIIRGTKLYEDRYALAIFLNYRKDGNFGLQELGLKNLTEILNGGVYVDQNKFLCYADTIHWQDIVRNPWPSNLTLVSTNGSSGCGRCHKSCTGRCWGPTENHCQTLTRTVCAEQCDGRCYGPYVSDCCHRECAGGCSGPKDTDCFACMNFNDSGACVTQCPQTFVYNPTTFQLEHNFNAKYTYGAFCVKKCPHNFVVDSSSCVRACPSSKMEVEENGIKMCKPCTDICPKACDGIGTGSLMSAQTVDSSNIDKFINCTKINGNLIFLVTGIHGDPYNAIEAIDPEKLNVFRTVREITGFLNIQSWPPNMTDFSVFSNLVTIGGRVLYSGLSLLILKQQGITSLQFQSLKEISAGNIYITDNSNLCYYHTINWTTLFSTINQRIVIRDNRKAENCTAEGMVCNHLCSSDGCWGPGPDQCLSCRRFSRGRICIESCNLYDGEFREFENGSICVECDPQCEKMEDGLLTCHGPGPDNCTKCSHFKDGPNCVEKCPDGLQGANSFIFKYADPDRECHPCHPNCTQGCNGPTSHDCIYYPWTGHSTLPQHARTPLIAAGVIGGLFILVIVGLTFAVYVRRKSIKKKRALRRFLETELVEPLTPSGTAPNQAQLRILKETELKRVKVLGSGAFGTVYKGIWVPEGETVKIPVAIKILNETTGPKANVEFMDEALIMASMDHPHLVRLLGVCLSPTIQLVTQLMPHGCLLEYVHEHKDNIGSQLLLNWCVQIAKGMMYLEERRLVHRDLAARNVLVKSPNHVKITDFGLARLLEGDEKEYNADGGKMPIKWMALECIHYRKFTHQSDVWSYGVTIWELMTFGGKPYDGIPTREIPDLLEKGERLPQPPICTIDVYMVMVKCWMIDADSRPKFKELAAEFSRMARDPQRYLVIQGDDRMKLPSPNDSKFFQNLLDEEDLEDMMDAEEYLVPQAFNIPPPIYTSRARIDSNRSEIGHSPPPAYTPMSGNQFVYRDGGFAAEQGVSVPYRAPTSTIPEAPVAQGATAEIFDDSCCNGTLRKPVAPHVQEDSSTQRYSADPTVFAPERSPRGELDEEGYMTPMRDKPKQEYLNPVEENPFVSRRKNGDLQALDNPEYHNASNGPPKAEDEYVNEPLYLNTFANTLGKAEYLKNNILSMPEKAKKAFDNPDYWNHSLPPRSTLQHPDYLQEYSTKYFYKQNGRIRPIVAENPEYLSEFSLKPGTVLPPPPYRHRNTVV

[5] = biological target: Interleukin-1 receptor-associated kinase 1 (Homo sapiens) (UniProt P51617); assay: Inhibition of human recombinant IRAK1 at 15 nM related to control ULK1
Interleukin-1 receptor-associated kinase 1 (Homo sapiens), sequence (P51617 whole entry, looked up): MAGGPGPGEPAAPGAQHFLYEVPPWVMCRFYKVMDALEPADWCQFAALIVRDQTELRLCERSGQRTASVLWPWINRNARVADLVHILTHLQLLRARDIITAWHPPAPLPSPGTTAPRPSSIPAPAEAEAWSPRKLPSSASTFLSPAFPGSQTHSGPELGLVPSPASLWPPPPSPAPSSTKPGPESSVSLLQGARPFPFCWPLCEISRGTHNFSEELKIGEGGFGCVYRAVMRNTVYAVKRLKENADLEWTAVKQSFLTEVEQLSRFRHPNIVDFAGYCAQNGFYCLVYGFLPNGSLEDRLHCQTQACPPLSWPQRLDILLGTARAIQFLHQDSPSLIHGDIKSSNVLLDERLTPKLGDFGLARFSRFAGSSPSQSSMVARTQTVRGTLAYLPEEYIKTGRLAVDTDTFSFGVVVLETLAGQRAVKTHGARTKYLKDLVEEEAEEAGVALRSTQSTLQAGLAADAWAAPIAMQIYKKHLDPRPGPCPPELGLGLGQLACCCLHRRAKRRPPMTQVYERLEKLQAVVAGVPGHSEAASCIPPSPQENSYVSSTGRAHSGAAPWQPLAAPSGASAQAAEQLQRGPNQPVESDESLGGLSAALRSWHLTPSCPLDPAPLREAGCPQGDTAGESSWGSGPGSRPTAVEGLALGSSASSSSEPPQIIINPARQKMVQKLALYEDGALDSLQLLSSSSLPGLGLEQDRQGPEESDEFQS

[6] = biological target: Cyclin-dependent kinase 7 (Homo sapiens) (UniProt P50613); assay: Inhibition of human recombinant CDK7 at 15 nM related to control ULK1
Cyclin-dependent kinase 7 (Homo sapiens), sequence (P50613 whole entry): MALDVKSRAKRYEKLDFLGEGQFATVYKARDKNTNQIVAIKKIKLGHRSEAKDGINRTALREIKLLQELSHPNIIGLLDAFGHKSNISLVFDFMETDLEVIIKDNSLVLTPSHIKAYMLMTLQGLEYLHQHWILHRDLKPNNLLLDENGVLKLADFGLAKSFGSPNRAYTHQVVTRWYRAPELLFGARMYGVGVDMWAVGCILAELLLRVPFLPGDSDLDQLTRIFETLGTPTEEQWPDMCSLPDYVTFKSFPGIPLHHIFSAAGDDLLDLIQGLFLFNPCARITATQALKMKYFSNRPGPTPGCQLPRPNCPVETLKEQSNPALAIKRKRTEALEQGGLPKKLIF

[7] = biological target: Ribosomal protein S6 kinase alpha-4 (Homo sapiens) (UniProt O75676); assay: Inhibition of human recombinant MSK2 at 40 nM in presence of ATP by radiometric assay relative to control
Ribosomal protein S6 kinase alpha-4 (Homo sapiens), sequence (O75676 whole entry, looked up): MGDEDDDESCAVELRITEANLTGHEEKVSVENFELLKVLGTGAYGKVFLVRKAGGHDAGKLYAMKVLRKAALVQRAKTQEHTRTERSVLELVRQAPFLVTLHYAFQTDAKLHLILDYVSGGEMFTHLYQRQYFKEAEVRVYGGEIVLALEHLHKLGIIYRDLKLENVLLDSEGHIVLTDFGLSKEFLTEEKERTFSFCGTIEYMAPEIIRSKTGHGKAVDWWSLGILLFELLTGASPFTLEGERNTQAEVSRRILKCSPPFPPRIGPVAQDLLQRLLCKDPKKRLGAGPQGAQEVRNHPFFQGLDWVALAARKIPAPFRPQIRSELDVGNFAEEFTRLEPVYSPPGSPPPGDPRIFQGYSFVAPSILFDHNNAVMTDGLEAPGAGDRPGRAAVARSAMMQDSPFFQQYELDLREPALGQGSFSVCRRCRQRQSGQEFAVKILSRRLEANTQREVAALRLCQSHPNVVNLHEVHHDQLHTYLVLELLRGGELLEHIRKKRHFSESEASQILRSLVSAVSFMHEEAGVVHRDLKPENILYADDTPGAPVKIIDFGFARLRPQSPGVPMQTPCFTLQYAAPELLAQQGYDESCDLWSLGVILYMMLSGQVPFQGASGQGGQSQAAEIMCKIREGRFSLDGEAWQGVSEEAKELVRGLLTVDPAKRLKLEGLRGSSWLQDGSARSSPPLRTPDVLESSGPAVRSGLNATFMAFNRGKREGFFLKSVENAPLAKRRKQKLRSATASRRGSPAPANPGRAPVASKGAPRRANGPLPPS

[8] = biological target: Cyclin-dependent kinase 12 (Homo sapiens) (UniProt Q9NYV4); assay: Inhibition of human recombinant CRK7 at 40 nM in presence of ATP by radiometric assay relative to control
[9] = species on record: Homo sapiens; assay: Inhibition of human recombinant p70S6K at 40 nM in presence of ATP by radiometric assay relative to control

Compound: CNC(=O)c1ccccc1Oc1nc(Nc2cc(OC)c(OC)c(OC)c2)ncc1Br
- fold change (FC) [1]: 0
- inhibition [2]: 10%
- fold change (FC) [3]: 0.14
- fold change (FC) [4]: 0

Compound: CC(C)[C@H](NC(=O)c1cc(-c2cnn3cc(-c4ccc(OCCN5CCCCC5)cc4)cnc23)cs1)C(F)(F)F
- fold change (FC) [5]: 0.41
- fold change (FC) [6]: 0.18

Compound: O=C(N[C@@H](C1CC1)C(F)(F)F)c1cc(-c2cnn3cc(-c4ccc(F)cc4)cnc23)cs1
- inhibition [7]: 0%
- inhibition [8]: 7%
- inhibition [9]: 2%
